Results taken from PubChem BioAssay AID248 (DTP/NCI, 2004).
Where “and” joins values, the source holds several entries; their conditions need not be identical. Equal values may be shown once. Toxic doses and inconclusive results are not listed. Rule as the data show it: active = T/C of 150% or more; inactive = T/C below 125%.

Test system: L1210 leukemia ip in BDF1 mice, survival T/C
Assay: NCI In Vivo Anticancer Drug Screen. Data for tumor model L1210 Leukemia (intraperitoneal) in B6D2F1 (BDF1) mice
Conditions: endpoint: mean survival time, higher = longer survival
Summary of the method: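 Transplantable tumor model; survival measured in treated vs vehicle control mice. Value = treated/control.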

[1] = dose: 100.0 mg/kg/injection, schedule: Q01DX009 (ip), vehicle: Klucel (hydroxypropylcellulose) (HPC)
[2] = dose: 100.0 mg/kg/injection, schedule: Q04DX003 (ip), vehicle: Klucel (hydroxypropylcellulose) (HPC)
[3] = dose: 200.0 mg/kg/injection, schedule: Q01DX009 (ip), vehicle: Klucel (hydroxypropylcellulose) (HPC)
[4] = dose: 200.0 mg/kg/injection, schedule: Q04DX003 (ip), vehicle: Klucel (hydroxypropylcellulose) (HPC)
[5] = dose: 400.0 mg/kg/injection, schedule: Q04DX003 (ip), vehicle: Klucel (hydroxypropylcellulose) (HPC)
[6] = dose: 100.0 mg/kg/injection, schedule: Q04DX003 (ip), vehicle: saline with Tween-80
[7] = dose: 200.0 mg/kg/injection, schedule: Q04DX003 (ip), vehicle: saline with Tween-80
[8] = dose: 400.0 mg/kg/injection, schedule: Q04DX003 (ip), vehicle: saline with Tween-80
[9] = dose: 100.0 mg/kg/injection, schedule: Q04DX002 (ip), vehicle: saline with Tween-80
[10] = dose: 200.0 mg/kg/injection, schedule: Q04DX002 (ip), vehicle: saline with Tween-80
[11] = dose: 400.0 mg/kg/injection, schedule: Q04DX002 (ip), vehicle: saline with Tween-80
[12] = dose: 50.0 mg/kg/injection, schedule: Q01DX001 (ip), vehicle: saline
[13] = dose: 100.0 mg/kg/injection, schedule: Q01DX001 (ip), vehicle: saline
[14] = dose: 200.0 mg/kg/injection, schedule: Q01DX001 (ip), vehicle: saline
[15] = dose: 400.0 mg/kg/injection, schedule: Q01DX001 (ip), vehicle: saline

Measured: T/C

CC1CN=C(c2ccc(NC(=O)c3ccc(C(=O)Nc4ccc(C5=NCC(C)CN5)cc4)cc3)cc2)NC1 (stereo unspecified)
inactive: dose: 0.12 mg/kg/injection, schedule: Q01DX015 (ip), vehicle: water 100 % of control | dose: 0.25 mg/kg/injection, schedule: Q01DX015 (ip), vehicle: water 102 % of control | dose: 0.5 mg/kg/injection, schedule: Q01DX015 (ip), vehicle: water 104 % of control | dose: 1.0 mg/kg/injection, schedule: Q01DX015 (ip), vehicle: water 104 % of control | dose: 2.0 mg/kg/injection, schedule: Q01DX015 (ip), vehicle: water 122 % of control | dose: 4.0 mg/kg/injection, schedule: Q01DX015 (ip), vehicle: water 114 % of control

Cc1ccc(N(N)c2ccc(C)cc2)cc1
inactive: [1] 98 % of control | [2] 100 % of control | [3] 98 % of control | [4] 97 % of control | [5] 100 % of control

O=C(OCc1ccccc1CN1CCOCC1)c1ccc(Cl)cc1
inactive: dose: 100.0 mg/kg/injection, schedule: Q04DX002 (ip), vehicle: Klucel (hydroxypropylcellulose) (HPC) 103 % of control | dose: 200.0 mg/kg/injection, schedule: Q04DX002 (ip), vehicle: Klucel (hydroxypropylcellulose) (HPC) 106 % of control | dose: 400.0 mg/kg/injection, schedule: Q04DX002 (ip), vehicle: Klucel (hydroxypropylcellulose) (HPC) 100 % of control

O=[N+]([O-])c1ccc(/C=C/c2ccccc2)c([N+](=O)[O-])c1
inactive: [2] 104 % of control | [4] 98 % of control | [5] 101 % of control

CC(C)C(C(=O)O)N1C(=O)C2C3CCC(C3)C2C1=O (stereo unspecified)
inactive: dose: 25.0 mg/kg/injection, schedule: Q04DX003 (ip), vehicle: saline 86 % of control | dose: 50.0 mg/kg/injection, schedule: Q04DX003 (ip), vehicle: saline 93 % of control | [6] 89 % of control | dose: 100.0 mg/kg/injection, schedule: Q04DX003 (ip), vehicle: saline 96 % of control | [7] 103 % of control | [8] 98 % of control

CCC1NC(C)(C)CC1=C(C)C (stereo unspecified)
inactive: dose: 3.13 mg/kg/injection, schedule: Q01DX009 (ip), vehicle: saline 101 % of control | dose: 6.25 mg/kg/injection, schedule: Q01DX009 (ip), vehicle: saline 96 % of control | dose: 12.5 mg/kg/injection, schedule: Q01DX009 (ip), vehicle: saline 96 % of control

CCC(C)C(NC(C)=O)C(=O)O (stereo unspecified)
inactive: [9] 102 % of control | [2] 88 % of control | [10] 94 % of control | [4] 91 % of control | [11] 102 % of control | [5] 89 % of control

CCN(CC)C(=O)Sc1ccc(SC(=O)N(CC)CC)cc1
inactive: dose: 12.5 mg/kg/injection, schedule: Q04DX002 (ip), vehicle: saline with Tween-80 90 % of control | dose: 25.0 mg/kg/injection, schedule: Q04DX002 (ip), vehicle: saline with Tween-80 97 % of control | dose: 50.0 mg/kg/injection, schedule: Q04DX002 (ip), vehicle: saline with Tween-80 93 % of control | [6] 107 % of control | [7] 102 % of control | [8] 97 % of control

CCCC(C)CCCNCCOC(=O)c1cccc(N)c1 (stereo unspecified)
inactive: dose: 75.0 mg/kg/injection, schedule: Q01DX001 (ip), vehicle: other 97 % of control | dose: 150.0 mg/kg/injection, schedule: Q01DX001 (ip), vehicle: other 94 % of control

COc1ccc(/C=C2/c3c(c(-c4ccccc4)c4ccccc4c3-c3ccccc3)S2(=O)=O)cc1
inactive: dose: 50.0 mg/kg/injection, schedule: Q01DX001 (ip), vehicle: carboxymethylcellulose (CMC) 97 % of control | dose: 100.0 mg/kg/injection, schedule: Q01DX001 (ip), vehicle: carboxymethylcellulose (CMC) 95 % of control | dose: 200.0 mg/kg/injection, schedule: Q01DX001 (ip), vehicle: carboxymethylcellulose (CMC) 95 % of control | dose: 400.0 mg/kg/injection, schedule: Q01DX001 (ip), vehicle: carboxymethylcellulose (CMC) 86 % of control

Cc1cc(Cl)cc(Cl)c1OCC(=O)Nc1cc(Cl)ccc1Cl
inactive: [9] 90 % of control | [10] 86 % of control | [11] 86 % of control

CCCCCCCCCCCCCCCCN(C)C(=S)c1ccc(Cl)c(Cl)c1
inactive: dose: 100.0 mg/kg/injection, schedule: Q01DX001 (ip), vehicle: Klucel (hydroxypropylcellulose) (HPC) 100 % of control | [2] 100 % of control | dose: 200.0 mg/kg/injection, schedule: Q01DX001 (ip), vehicle: Klucel (hydroxypropylcellulose) (HPC) 100 % of control | [4] 96 % of control | dose: 400.0 mg/kg/injection, schedule: Q01DX001 (ip), vehicle: Klucel (hydroxypropylcellulose) (HPC) 98 % of control | [5] 91 % of control

Cc1ccc(S(=O)(=O)OCC(F)(F)C(F)(F)C(F)(F)C(F)(F)C(F)(F)C(F)(F)C(F)(F)F)cc1
inactive: dose: 100.0 mg/kg/injection, schedule: Q01DX009 (ip), vehicle: saline 94 % of control | dose: 200.0 mg/kg/injection, schedule: Q01DX009 (ip), vehicle: saline 88 % of control | dose: 400.0 mg/kg/injection, schedule: Q01DX009 (ip), vehicle: saline 93 % of control

CCC(=O)OCNC(=O)NNC(=O)CCCC(=O)NNC(=O)NCOC(=O)CC
inactive: [12] 102 % of control | [13] 102 % of control | [14] 106 % of control | [15] 100 % of control

COC(=O)C1(C)CCCC2(C)C3CCC(C(C)C)C(CO)C3C(CO)CC12 (stereo unspecified)
inactive: dose: 100.0 mg/kg/injection, schedule: Q04DX003 (ip), vehicle: other 107 % of control | dose: 200.0 mg/kg/injection, schedule: Q04DX003 (ip), vehicle: other 104 % of control | dose: 400.0 mg/kg/injection, schedule: Q04DX003 (ip), vehicle: other 107 % of control

O=C1c2ccccc2C(=O)C2C1C(c1ccccc1)N(c1ccccc1)C2c1ccccc1 (stereo unspecified)
inactive: [12] 94 % of control | [13] 105 % of control | [14] 94 % of control | [15] 103 % of control

COc1cc(C2NC(=S)NC2=S)ccc1O (stereo unspecified)
inactive: dose: 25.0 mg/kg/injection, schedule: Q01DX009 (ip), vehicle: saline with Tween-80 104 % of control | dose: 25.0 mg/kg/injection, schedule: Q04DX003 (ip), vehicle: saline with Tween-80 94 % of control | dose: 50.0 mg/kg/injection, schedule: Q01DX009 (ip), vehicle: saline with Tween-80 96 % of control | dose: 50.0 mg/kg/injection, schedule: Q04DX003 (ip), vehicle: saline with Tween-80 92 % of control | [6] 94 % of control and 98 % of control

CC(=O)CC(=O)Nc1ccc(C(=O)O)c(O)c1
inactive: [1] 93 % of control | [3] 87 % of control | dose: 400.0 mg/kg/injection, schedule: Q01DX009 (ip), vehicle: Klucel (hydroxypropylcellulose) (HPC) 93 % of control

C=CCOC(=O)Nc1cccc(OC(=O)NC(C)(C)C)c1
inactive: [6] 105 % of control | [7] 99 % of control | [8] 98 % of control

COc1ccccc1OCCOCCNC1C(C)CCCC1(C)C (stereo unspecified)
inactive: dose: 12.5 mg/kg/injection, schedule: Q04DX003 (ip), vehicle: Klucel (hydroxypropylcellulose) (HPC) 100 % of control | dose: 25.0 mg/kg/injection, schedule: Q04DX003 (ip), vehicle: Klucel (hydroxypropylcellulose) (HPC) 94 % of control | dose: 50.0 mg/kg/injection, schedule: Q04DX003 (ip), vehicle: Klucel (hydroxypropylcellulose) (HPC) 93 % of control | [2] 90 % of control

CN(C)c1ccc(/C=C2\CC(C)(C)c3ccccc3C2=O)cc1
inactive: dose: 100.0 mg/kg/injection, schedule: Q04DX003 (ip), vehicle: saline sonified 103 % of control | dose: 200.0 mg/kg/injection, schedule: Q04DX003 (ip), vehicle: saline sonified 97 % of control | dose: 400.0 mg/kg/injection, schedule: Q04DX003 (ip), vehicle: saline sonified 103 % of control

N#CCCNC(=S)Nc1ccccc1
inactive: dose: 25.0 mg/kg/injection, schedule: Q01DX Z (ip), vehicle: methylcellulose (MC) 102 % of control | dose: 50.0 mg/kg/injection, schedule: Q01DX Z (ip), vehicle: methylcellulose (MC) 101 % of control

C(=C(CC1CCC1)CC1CCC1)C1CCC1
inactive: [9] 96 % of control | [10] 90 % of control

Cc1nc(-c2ccc(N=Cc3ccc(N(CCCOS(C)(=O)=O)CCCOS(C)(=O)=O)cc3C)cc2)c(C)s1
inactive: dose: 100.0 mg/kg/injection, schedule: Q01DX009 (ip), vehicle: saline with Tween-80 100 % of control | dose: 200.0 mg/kg/injection, schedule: Q01DX009 (ip), vehicle: saline with Tween-80 93 % of control
